From US11040035B2, “3-oxo-2,6-diphenyl-2,3-dihydropyridazine-4-carboxamides” (BAYER PHARMA AKTIENGESELLSCHAFT, priority 2016, dated 2021) come the findings set out here.

Like-named read-outs stand apart in the source and are kept apart here. Some results are limits rather than exact numbers.

The target of series [1] is T1, AHR (Homo sapiens, UniProt P35869).
T1 sequence (P35869 11-848): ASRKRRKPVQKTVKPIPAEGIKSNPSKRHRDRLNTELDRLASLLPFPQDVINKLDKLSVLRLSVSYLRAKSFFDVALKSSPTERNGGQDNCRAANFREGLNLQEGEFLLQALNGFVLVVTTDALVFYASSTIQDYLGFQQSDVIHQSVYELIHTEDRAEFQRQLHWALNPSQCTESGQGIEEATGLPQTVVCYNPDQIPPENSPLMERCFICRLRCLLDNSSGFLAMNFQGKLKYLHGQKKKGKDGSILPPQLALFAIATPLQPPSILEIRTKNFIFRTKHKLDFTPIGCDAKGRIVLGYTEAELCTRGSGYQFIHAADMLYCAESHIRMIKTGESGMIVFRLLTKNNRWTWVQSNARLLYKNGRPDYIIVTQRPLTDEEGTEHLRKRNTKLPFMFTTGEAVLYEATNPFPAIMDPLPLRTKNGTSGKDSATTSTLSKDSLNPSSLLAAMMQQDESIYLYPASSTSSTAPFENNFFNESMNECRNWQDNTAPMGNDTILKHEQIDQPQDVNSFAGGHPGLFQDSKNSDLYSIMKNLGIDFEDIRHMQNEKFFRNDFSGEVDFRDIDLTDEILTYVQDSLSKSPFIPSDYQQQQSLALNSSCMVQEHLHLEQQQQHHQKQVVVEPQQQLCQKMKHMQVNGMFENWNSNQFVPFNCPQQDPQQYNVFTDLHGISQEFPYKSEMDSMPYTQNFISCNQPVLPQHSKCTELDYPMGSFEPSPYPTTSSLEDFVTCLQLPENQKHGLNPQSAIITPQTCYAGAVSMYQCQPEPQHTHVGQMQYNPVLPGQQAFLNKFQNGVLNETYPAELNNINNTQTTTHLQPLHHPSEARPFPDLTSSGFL
The experiment in a line: In vitro assay 2: agonism in human cell line (transactivation assay).

In series [2] the test system is AHR-regulated gene CYP1A1. Description: In vitro assay 3: AHR-regulated CYP1A1 expression in human cell line (U937, qPCR).
Method: In Vitro Assay 3: AHR-Regulated CYP1A1 Expression in Human Cell Line
To assess the AHR inhibitory activity of the substances described in this application, the ability thereof to antagonise ligand-induced AHR gene regulation in a dose-dependent manner was quantified. For this purpose, quantitative PCR analysis was used to determine expression of the AHR-regulated gene CYP1A1 in a human monocytic U937 cell line upon stimulation with 200 μM KA in the presence and absence of AHR inhibitor. U937 cells were sown at a concentration of 2×10^5 cells/well in 100 ul of growth medium (RPMI 1640, 20% FCS) in 96-well microtitre plates. CYP1A1 expression was induced with 200 μM KA (positive control) in the presence or absence of the substances for 6 hours. Human U937 cells were typically incubated with eight different concentrations of the substances (1 nM, 3 nM, 10 nM, 30 nM, 100 nM, 300 nM, 1 μM and 3 μM) and analyzed in duplicate on the same microtitre plate. After stimulation, cells were lysed with Nucleic Acid Lysis Solution (#4305895, Applied Biosystems) and RNA was isolated using the 6100 Nucleic Acid Preparation Station (Applied Biosystems) and reverse-transcribed to cDNA using SuperScript VILO cDNA synthesis kit (#11754-250, Invitrogen). Unstimulated cells were used as the negative control. Taqman probes for human CYP1A1 (Hs01054797_g1) and human HPRT (Hs02800695_m1) were used to analyze fold expression of CYP1A1 of HPRT. Quantitation was performed on a Taqman SDS7900HT.
The target in series [3] is T1, AHR. Description: In vitro assay 1: antagonism in human cell line (transactivation assay, kynurenic acid prestimulated). The note with it: Assay 1: AHR-luc Hum Antagonism IC50 [M], 150 μM kynurenic acid, 20 hours, firefly luciferase.
The mark [4] stands for this setting: Assay 2: AHR-luc Hum Agonism IC50 [M], no kynurenic acid, 20 hours, firefly luciferase.
[5] abbreviates: Homo sapiens, U-937, 6 h, read-out: Assay 3: Hum CYP1A1 Antagonism IC50 [M], U937 cells, 200 μM KA, 6 hours, qPCR.
[6] abbreviates: read-out: Assay 2: AHR-luc Hum Agonism IC50, no kynurenic acid, 20 hours, firefly luciferase.
The mark [7] stands for this setting: read-out: Assay 3: Hum CYP1A1 Antagonism IC50, U937 cells, 200 μM KA, 6 hours, qPCR.

As a reminder, the IC50 is the concentration that inhibits the measured activity by half. On to `COc1ccc(-c2cc(C(=O)N[C@@H]3CCCC[C@@H]3O)c(=O)n(-c3cccc(F)c3)n2)cc1` (single isomer, unassigned) [Example 107, 2-(3-Fluorophenyl)-N-(cis-2-hydroxycyclohexyl)-6-(4-methoxyphenyl)-3-oxo-2,3-dihydropyridazine-4-carboxamide], for which the IC50 is above 2e-05 M against AHR [1] (setting [4]), 1.83e-08 M in series [2] (setting [5]) and 1.76e-08 M at AHR [3].
For `C[C@H](O)CCNC(=O)c1cc(-c2ccc(C(F)(F)F)cc2)nn(-c2cccc(F)c2)c1=O` [Example 248, 2-(3-Fluorophenyl)-N-[(3S)-3-hydroxybutyl]-3-oxo-6-[4-(trifluoromethyl)phenyl]-2,3-dihydropyridazine-4-carboxamide] the same measures were above 2e-05 M, 1.36e-07 M and 9.73e-08 M.
For `N#CC(CO)NC(=O)c1cc(-c2ccc(Cl)cc2)nn(-c2cccc(F)c2)c1=O` (racemic) [Example 371, 6-(4-chlorophenyl)-N-[(1RS)-1-cyano-2-hydroxyethyl]-2-(3-fluorophenyl)-3-oxo-2,3-dihydropyridazine-4-carboxamide] the same measures were above 2e-05 M, 5.69e-08 M and 1.63e-08 M.
In the same order, the values of `O=C(NC(CO)C1CCOC1)c1cc(-c2ccc(OC(F)F)cc2)nn(-c2cccc(F)c2)c1=O` (single isomer, unassigned) [Example 145, 6-[4-(Difluoromethoxy)phenyl]-2-(3-fluorophenyl)-N-{(2-hydroxy-1-tetrahydrofuran-3-yl)ethyl}-3-oxo-2,3-dihydropyridazine-4-carboxamide] are above 2e-05 M, 3.89e-08 M and 9.33e-08 M.
`CC(C)[C@@H](CO)NC(=O)c1cc(-c2ccc(N(C)C)c(Cl)c2)nn(-c2cccc(F)c2)c1=O` [Example 375, 6-[3-chloro-4-(dimethylamino)phenyl]-2-(3-fluorophenyl)-N-[(2S)-1-hydroxy-3-methylbutan-2-yl]-3-oxo-2,3-dihydropyridazine-4-carboxamide]: the values for the IC50 (against AHR [1] (setting [4]); in series [2] (setting [5]); at AHR [3]) were above 2e-05 M, 5.73e-08 M and 3.05e-08 M, respectively.
Turning to `CC(O)C(C)NC(=O)c1cc(-c2ccc(OC(F)(F)F)cc2)nn(-c2cccc(F)c2)c1=O` (single isomer, unassigned) [Example 181, 2-(3-Fluorophenyl)-N-(3-hydroxybutan-2-yl)-3-oxo-6-[4-(trifluoromethoxy)phenyl]-2,3-dihydropyridazine-4-carboxamide], the results for the IC50 (on AHR [1] (setting [6]); in series [2] (setting [5]); against AHR [3]) were above 2e-05 M, 2.12e-07 M and 8.02e-08 M, respectively.
`O=C(N[C@H]1COC[C@@H]1O)c1cc(-c2ccc(Cl)cc2)nn(-c2cccc(F)c2)c1=O` [Example 167, 6-(4-Chlorophenyl)-2-(3-fluorophenyl)-N-[(3S,4R)-4-hydroxytetrahydrofuran-3-yl]-3-oxo-2,3-dihydropyridazine-4-carboxamide]: the concentration for half-maximal inhibition (IC50) was above 2e-05 M against AHR [1] (setting [4]), 2.03e-07 M in series [2] (setting [5]) and 1.63e-07 M at AHR [3].
In the case of `O=C(N[C@@H]1COC[C@@H]1O)c1cc(-c2ccc(C(F)(F)F)cc2)nn(-c2cccc(F)c2)c1=O` (single isomer, unassigned) [Example 344, (+)-2-(3-fluorophenyl)-N-(cis-4-hydroxytetrahydrofuran-3-yl)-3-oxo-6-[4-(trifluoromethyl)phenyl]-2,3-dihydropyridazine-4-carboxamide], the IC50 at AHR [1] (setting [4]) is above 2e-05 M; in series [2] (setting [7]), 1.85e-08 M; against AHR [3] it was 5.84e-09 M.
Take `COc1ccc(-c2cc(C(=O)NC(CO)C(F)(F)F)c(=O)n(-c3cccc(F)c3)n2)cc1` (single isomer, unassigned) [Example 102, 2-(3-Fluorophenyl)-6-(4-methoxyphenyl)-3-oxo-N-(1,1,1-trifluoro-3-hydroxypropan-2-yl)-2,3-dihydropyridazine-4-carboxamide]: the IC50 is above 2e-05 M on AHR [1] (setting [6]), 4.37e-08 M in series [2] (setting [7]) and 4.22e-08 M against AHR [3].
